Values quoted from earlier work in US5658892A, “Compound delivery using high-pressure impulse transients” (The General Hospital Corporation, priority 1995, dated 1997).

System: prostate tumors
Conditions: rats, Holmes et al. 1990

N.N.[Cl][Pt][Cl] [cisplatinum]
tumor growth (combined with high-pressure, short-duration waves): delayed tumor growth was achieved | animal mortality (relative to cisplatinum alone) (combined with shock wave therapy): an increase in animal mortality
